Key:
[1] = test system: cardiac sympathetic afferent reflex (CSAR); assay: Response to activation of the CSAR (MAP, RSNA) over 26 weeks after epidural or epicardial RTX; assay type: in vivo, rat
Protocol: The following Examples 1 through 9 discuss data from rats with induced CHF. The Examples show many improved indicators associated with RTX treatment in CHF subjects. The rat models provide for comparison of epidural administration of RTX against epicardial administration of RTX and against various controls. For the epicardial data, RTX was administered directly to the epicardium by swab during open surgery contemporaneously with induced myocardial infarction (coronary artery ligation).
(§1) For epidural application of RTX, a small midline incision was made in the region of the T13-L1 thoracic vertebrae. Following dissection of the superficial muscles, two small holes (approximately 2 mm by 2 mm) were made in the left and right sides of the T13 vertebra. A polyethylene catheter (PE-10) was inserted into the […] via the left hole and gently advanced about 5.5-6 cm to the left T1 level at which the first injection (6 μg/mL, 10 μL) was made at a very slow speed to minimize the diffusion of RTX. Then the catheter was pulled back about 0.5 cm to left T2, T3, and T4, respectively, to perform serial injections (10 μL each) in each segment. Then the catheter was withdrawn and the same injection was repeated on the right side. A silicone gel was used to seal the hole in the T13 vertebra. The skin overlying the muscle was closed with a 3-0 polypropylene suture. Simple interrupted sutures were used to close the skin.
FIGS. 3A-4B show experimental results for a rat study in accordance with an embodiment of the present application.

C fiber afferents = assay: Staining of the dorsal horn of the spinal cord at T2 for TRPV1, Substance P and IB4; assay type: in vivo, rat
Protocol: as §1
Neurons in the dorsal horn of the spinal cord that express SP were ablated by RTX. IB4 is an indicator of small diameter afferent nerves and SP is an indicator of neuroinflammation.

rats with induced CHF = assay: Mean arterial pressure over 24 hours in CHF rats; assay type: in vivo, rat; conditions: epidural RTX, 10-12 weeks after myocardial infarction
Protocol: The study was conducted 10-12 weeks after the myocardial infarction.
as §1
For each population, n=6-8. The study was conducted for a 10-12 week period after the myocardial infarction. […] Treatment with epidural RTX corresponds to a lower MAP for the CHF rat population.

early hypertensive rats = assay: Arterial pressure in early hypertensive rat model after epidural RTX; assay type: in vivo
Protocol: Open circles indicate the control population, while filled circles indicate the RTX-treated population. Epidural administration of RTX was by injection on Day 0, as indicated by the arrow on the graph.
The hypertensive model is a genetic spontaneously hypertensive rat (SHR). The early hypertension rats were treated at 8 weeks at age, reflecting a population in which blood pressure was only minimally elevated at the beginning of the study. Examples 10 and 11 illustrate treatment of subjects with hypertension and pre-hypertension (i.e., mild hypertension or early hypertension) and without induced CHF. For these subjects, epidural administration of RTX may be associated with an absolute reduction in blood pressure. Additionally, subjects treated with RTX may show less increase in blood pressure over time, as compared to a control population. Or, treatment may be associated with both an absolute reduction in pressure and lessened increase over time.
FIG. 13A-13C show experimental results in a study using an early-hypertensive rat model. […] Open circles indicate the control population, while filled circles indicate the RTX-treated population. Epidural administration of RTX was by injection on Day 0, as indicated by the arrow on each graph.

[2] = test system: established hypertensive rat model; assay: MAP and heart rate in established hypertensive rats after lumbar (L2-L5) RTX administration; assay type: in vivo
Protocol: Blood pressure measurements are 8 hours average per day.
Example 12 describes an experiment in which RTX administration was made to the lumbar region of a rat population (L2-L5).
Blood pressure continued to increase above the pre-injection baseline level by the end of the study period.

TRPV1 afferents = assay: Immunofluorescence study for TRPV1 afferents after L2-L5 RTX administration; assay type: in vivo, rat
Excerpt: Additionally, an immunofluorescence study for TRPV1 afferents was made following administration at the L2-L5 levels. […] Within the T1-T5 levels, no reduction in TRPV1 afferents was shown following the L2-L5 injection. Within the heart, TRPV1 fluorescence remained on the surfaces of the myocardium and within the cardiac tissue.

hypertensive rat = conditions: in vivo
TRPV1 = TRPV1 (Rattus norvegicus, UniProt O35433); assay: TRPV1 receptor intensity by vertebral level after epidural RTX injection at T1-T4; assay type: in vivo; set-up: from tissue; host or cells: rat tissue at vertebral levels C6-L4 after in vivo epidural RTX; conditions: RTX injection at T1-T4 vertebral levels, FIG. 2
TRPV1, sequence (O35433 whole entry): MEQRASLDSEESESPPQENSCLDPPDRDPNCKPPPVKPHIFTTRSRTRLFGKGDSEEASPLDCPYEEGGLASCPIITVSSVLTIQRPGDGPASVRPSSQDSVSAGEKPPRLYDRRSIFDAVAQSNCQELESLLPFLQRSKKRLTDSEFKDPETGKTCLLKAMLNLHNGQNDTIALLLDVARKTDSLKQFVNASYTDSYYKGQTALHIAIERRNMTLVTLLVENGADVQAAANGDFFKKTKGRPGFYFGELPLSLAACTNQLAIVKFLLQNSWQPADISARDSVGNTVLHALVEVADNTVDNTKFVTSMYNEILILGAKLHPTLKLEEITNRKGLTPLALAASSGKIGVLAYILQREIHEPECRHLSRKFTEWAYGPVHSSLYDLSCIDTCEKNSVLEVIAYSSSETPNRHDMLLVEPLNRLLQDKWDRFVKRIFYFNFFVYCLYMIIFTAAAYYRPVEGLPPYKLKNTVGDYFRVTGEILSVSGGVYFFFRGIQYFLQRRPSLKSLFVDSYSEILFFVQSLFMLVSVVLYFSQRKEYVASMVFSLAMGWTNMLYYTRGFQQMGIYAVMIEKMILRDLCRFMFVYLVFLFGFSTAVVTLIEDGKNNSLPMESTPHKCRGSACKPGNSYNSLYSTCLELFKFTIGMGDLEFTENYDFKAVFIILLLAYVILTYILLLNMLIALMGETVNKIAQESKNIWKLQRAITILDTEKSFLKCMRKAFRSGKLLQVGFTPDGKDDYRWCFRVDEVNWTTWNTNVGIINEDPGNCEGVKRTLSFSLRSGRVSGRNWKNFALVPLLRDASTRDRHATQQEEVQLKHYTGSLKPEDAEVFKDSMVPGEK
Excerpt: The nerves associated with the sympatho-excitation corresponding to increased cardiac sympathetic nerve activity are predominately found within the first four thoracic vertebral levels (Evans et al. (1953) N. Engl. J. Med. 249:791-796). Thus, administration to one or more of the first four thoracic vertebral levels may be beneficial because the nerves associated with cardiac sympathetic afferent nerve activity are predominately found within the first four thoracic vertebral levels. By treating these thoracic vertebral levels, denervation of these sympathetic afferent nerves will be substantially achieved with minimal or only partial denervation or ablation of nerves at other vertebral levels. […] Additionally, the small images inset on the figure show greater intensity of activity visible at the C6, C7, T6, T7, and L4 vertebral levels, as compared to the C8 through T5 vertebral levels.
For epidural application of RTX, a small midline incision was made in the region of the T13-L1 thoracic vertebrae. Following dissection of the superficial muscles, two small holes (approximately 2 mm by 2 mm) were made in the left and right sides of the T13 vertebra. […]

[3] = epidural RTX vs vehicle, weeks 1, 5-6, 9-11, 24-26, FIG. 3B
[4] = epidural RTX at T1-T4 DRG levels
[5] = vehicle-only continued to increase

C=C(C)[C@]12C[C@@H](C)[C@@]34O[C@](Cc5ccccc5)(O[C@@H]1[C@@H]3C=C(COC(=O)Cc1ccc(O)c(OC)c1)C[C@]1(O)C(=O)C(C)=C[C@@H]41)O2 [RTX, resiniferatoxin]
duration of cardiac sympathetic afferent ablation ([1]; epicardial RTX administration): 3-4 months | mean arterial pressure (MAP) response to activation of the CSAR [1, 3]: substantial decrease | renal sympathetic nerve activity (RSNA) response to activation of the CSAR [1, 3]: substantial decrease | expression of TRPV1 protein (C fiber afferents; dorsal horn at T2, RTX vs control, FIG. 4): reduced expression | ablation of SP-containing C fiber afferents (peptidergic) projecting to the dorsal horn (C fiber afferents; [4]): ablated almost all | ablation of isolectin B4 (IB4)-positive C fiber afferents (non-peptidergic) projecting to the dorsal horn (C fiber afferents; [4]): a large portion | mean arterial pressure (MAP) over 24 hours (rats with induced CHF): lower MAP | MAP following treatment (early hypertensive rats): 125-130 mmHg | day from which MAP was significantly lower than vehicle-only (early hypertensive rats): 20 days | day from which diastolic arterial pressure was significantly lower than control (early hypertensive rats): ~22 days | day from which systolic arterial pressure was significantly lower than control (early hypertensive rats): ~23 days | mean arterial pressure (MAP) after RTX injection (early hypertensive rats; epidural RTX Day 0): decreased slightly | systolic arterial pressure within a few days after RTX injection (early hypertensive rats; then returned and maintained): decreased slightly | diastolic arterial pressure over the study period (early hypertensive rats; [5]): remained approximately steady | mean arterial pressure (MAP) over the period of the study (early hypertensive rats; [5]): approximately steady | heart rate following RTX injection ([2]; RTX L2-L5): increase in heart rate | time over which heart rate increase subsides ([2]; RTX L2-L5, after injection): 2 to 10 days | time at which MAP returned to the pre-injection baseline ([2]; RTX L2-L5, after treatment): 15 to 20 days | MAP following lumbar injection ([2]; RTX L2-L5, established hypertensive rats): reduced immediately | sustained treatment of hypertension ([2]; RTX to lumbar region L2-L5): does not achieve the sustained treatment of hypertension | TRPV1 afferents in DRG neurons, L2-L5 levels (TRPV1 afferents): elimination of most TRPV1 afferents | TRPV1 afferents, L1 level (TRPV1 afferents): many TRPV1 afferents remained | TRPV1 afferents, T1-T5 levels (TRPV1 afferents): no reduction | TRPV1 fluorescence in the heart (surfaces of the myocardium and cardiac tissue) (TRPV1 afferents): remained | ABP, MAP and heart rate following injection (hypertensive rat): substantial short term increases | average short-term increase in MAP over baseline (hypertensive rat): about 30 mmHg | duration of transient increase in blood pressure, heart rate, or both (hypertensive rat): about five or ten | reduced vanilloid (TRPV1) receptor intensity, localisation (TRPV1): generally localized to the four treated vertebral levels and the one or two vertebral levels proximate the treated vertebral levels

From patent US20250082605A1 (priority 2016, published 2025)
